Laboratory results reported in patent US7872005B2, “2-substituted heteroaryl compounds” (Synta Pharmaceuticals Corporation, priority 2004, dated 2011).

Tests used:
[1] = tested on: colitis in C.B-17 SCID mice; assay: CD4+ CD45Rb high T cell-reconstituted SCID colitis model mice; assay type: in vivo, mouse
Description: Treatment of Crohn's disease in CD4^+ CD45Rb^high T cell-reconstituted SCID colitis model mice: Spleen cells were prepared from normal female BALB/c mice. For cell purification, the following anti-mouse antibodies were used to label non-CD4^+ T cells: B220 (RA3-6B2), CD11b (M1/70), and CD8α (53-6.72). All antibodies were obtained from BioSource (Camarillo, Calif.). M450 anti-rat IgG-coated magnetic beads (Dynal, Oslo, Norway) were used to bind the antibodies and negative selection was accomplished using an MPC-1 magnetic concentrator. The enriched CD4^+ cells were then labeled for cell sorting with FITC-conjugated CD45RB (16A, Pharmingen, San Diego, Calif.) and PE-conjugated CD4 (CT-CD4, Caltag, Burlingame, Calif.). CD4^+ CD45RB^high cells were operationally defined as the upper 40% of CD45Rb-staining CD4^+ cells and sorted under sterile conditions by flow cytometry. Harvested cells were resuspended at 4×10^6/mL in PBS and injected 100 μL intraperitoneally into female C.B-17 SCID mice. Pyrimidine compounds of this invention (e.g., Compound 12) and/or vehicle was orally administered once a day, 5 days per week, starting the day following the transfer. The transplanted SCID mice were weighed weekly and their clinical condition was monitored.
Colon tissue samples were fixed in 10% buffered formalin and embedded in paraffin. Sections (4 μm) collected from ascending, transverse, and descending colon were cut and stained with hematoxylin and eosin. The severity of colitis was determined based on histological examination of the distal colon sections, whereby the extent of colonic inflammation was graded on a scale of 0-3 in each of four criteria: crypt elongation, cell infiltration, depletion of goblet cells, and the number of crypt abscesses.
LP lymphocytes were isolated from freshly obtained colonic specimens. After removal of payer's patches, the colon was washed in Ca/Mg-free HBSS, cut into 0.5 cm pieces and incubated twice in HBSS containing EDTA (0.75 mM), DTT (1 mM), and antibiotics (amphotericin 2.5 μg/mL, gentamicin 50 μg/mL from Sigma) at 37° C. for 15 min. Next, the tissue was digested further in RPMI containing 0.5 mg/mL collagenase D, 0.01 mg/mL DNase I (Boehringer Manheim), and antibiotics at 37° C. LP cells were then layered on a 40-100% Percoll gradient (Pharmacia, Uppsala, Sweden), and lymphocyte-enriched populations were isolated from the cells at the 40-100% interface.
To measure cytokine production, 48-well plates were coated with 10 μg/mL murine anti-CD3ε antibody (145-2C11) in carbonate buffer (PH 9.6) overnight at 4° C. […] Murine IFNγ was measured using an ELISA kit from Endogen (Cambridge, Mass.), according to the manufacturer's instructions.

[2] = tested on: adjuvant arthritis (AA) in female Lewis rats; assay: Treatment of adjuvant arthritis in rats; assay type: in vivo, rat; settings: oral, once a day for 12 days; dose-dependent
Description: A heterocyclic compound can also be evaluated by animal studies. For example, one of such studies involves the ability of a test compound to treat adjuvant arthritis (i.e., a IL-12 overproduction related disorder) in rats.
Treatment of adjuvant arthritis in rats: Adjuvant arthritis (AA) was induced in female Lewis rats by the intracutaneous injection (base of the tail) of 0.1 mL of a 10 mg/mL bacterial suspension made from ground, heat-killed Mycobacterium tuberculosis H37Ra suspended in incomplete Freund's adjuvant. Rats were given a test compound orally once a day for 12 days, starting the day following the induction. The development of polyarthritis was monitored daily by macroscopic inspection and assignment of an arthritis index to each animal, during the critical period (days 10 to 25 post-immunization).
The intensity of polyarthritis was scored according to the following scheme: (a) Grade each paw from 0 to 3 based on erythema, swelling, and deformity of the joints: 0 for no erythema or swelling; 0.5 if swelling is detectable in at least one joint; 1 for mild swelling and erythema; 2 for swelling and erythema of both tarsus and carpus; and 3 for ankylosis and bony deformity. Maximum score for all 4 paws was thus 12. […]

Cc1cccc(/C=N/Nc2cc(N3CCOCC3)nc(CCOC(=O)Nc3cccc(C(F)(F)F)c3)n2)c1 [Compound 12, (3-Trifluoromethyl-phenyl)-carbamic acid 2-{4-[N′-(3-methyl-benzylidene)-hydrazino]-6-morpholin-4-yl-pyrimidin-2-yl}-ethyl ester]
IFNγ production by LP cells in response to anti-CD3 and anti-CD28 antibody ([1]; LP cells from treated mice, ex vivo, 48 h culture): greatly diminished the production | colonic inflammation (histological analysis) ([1]; oral, once a day, 5 days per week, compared to vehicle control): reduced colonic inflammation | colon-to-body weight ratio ([1]; oral, consistent with histological score): attenuation | suppressive effect on colonic inflammation at 10 mg/kg ([1]; oral, dose of 10 mg/kg): substantial reduction | arthritic score [2]: reduced the arthritic score | development of polyarthritis [2]: delayed the development of polyarthritis
